The results in this text go back to US5482948A, “Pyridyl derivatives and pharmaceutical compositions comprising these compounds” (Dr. Karl Thomae GmbH, priority 1991, dated 1996).

The target of one test is T1, Thromboxane (Homo sapiens, UniProt P21731).
T1 construct: endogenous in cells; host or cells: human platelets (platelet-rich plasma passed through Sepharose 2B)
T1 sequence (P21731 1-343): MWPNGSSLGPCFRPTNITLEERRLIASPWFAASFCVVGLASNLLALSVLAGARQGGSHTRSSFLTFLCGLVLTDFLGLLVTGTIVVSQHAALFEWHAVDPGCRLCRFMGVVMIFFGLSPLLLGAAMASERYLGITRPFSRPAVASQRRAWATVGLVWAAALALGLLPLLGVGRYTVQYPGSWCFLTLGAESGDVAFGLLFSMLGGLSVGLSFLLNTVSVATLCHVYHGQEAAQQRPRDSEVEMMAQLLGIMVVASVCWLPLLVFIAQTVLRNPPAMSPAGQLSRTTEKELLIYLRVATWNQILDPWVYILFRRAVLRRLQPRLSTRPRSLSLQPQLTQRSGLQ
The test is described as follows: Thromboxane-antagonistic activity (displacement of 3H-labelled ligand on human platelets). The format is binding. The note with it: human platelet suspension, 60 minutes at ambient temperature. How it is done:
Thromboxane-antagonistic Activity
Venous human blood is anti-coagulated with 13 mM Na3 citrate and centrifuged for 10 minutes at 170×g. The supernatant platelet-rich plasma is passed through a Sepharose 2B column in order to remove the plasma proteins. Aliquots of the platelet suspension obtained are incubated with the test substance, the ligand (^3 H-labelled) and a marker (^14 C-labelled) for 60 minutes at ambient temperature and then centrifuged for 20 seconds at 10,000×g. The supernatant is removed and the pellet is dissolved in NaOH. The ^3 H activity in the supernatant corresponds to the free ligand, ^14 C gives the concentration of the marker. ^3 H in the pellet corresponds to the bound ligand whilst ^14 C is used to correct for the ligand in the extracellular space. After the process has been repeated, the displacement curve is determined from the binding values for different concentrations of the test substance and the IC50 is determined.
Background: Loss of bound radioactivity is the signal in a displacement assay; it reports binding, not function.

The subject of the next test is thrombocyte aggregation. The experiment in a line: Antithrombotic activity: collagen-induced aggregation in platelet-rich plasma (Born and Cross). The format is cell-based. The note with it: Homo sapiens, 10 min; platelet-rich plasma from healthy volunteers; incubated 10 minutes at 37° C.; 50% change in optical density; read-out: Inhibition of collagen-induced aggregation EC50. How it is done: The thrombocyte aggregation is measured using the method of Born and Cross (J. Physiol. 170, 397 (1964)) in platelet-rich plasma taken from healthy volunteers. To inhibit coagulation, the blood is mixed with 3.14% strength sodium citrate in a ratio by volume of 1:10.
Collagen-induced Aggregation
The pattern of decrease in the optical density of the platelet suspension is photometrically measured and recorded after the addition of the aggregation-triggering substance. The rate of aggregation is concluded from the angle of inclination of the density curve. The point on the curve where there is greatest light transmittance is used to calculate the "optical density".
The quantity of collagen used is as little as possible but sufficient to produce an irreversible reaction curve. Standard commercial collagen produced by Hormonchemie of Munich is used. Before the addition of the collagen the plasma is incubated for 10 minutes with the substance at 37° C.
From the measurements obtained an EC50 is determined by plotting a graph, and indicates a 50% change in the "optical density" in terms of the inhibition of aggregation.

The target of the next test is T2, thromboxane synthetase (Homo sapiens, UniProt P24557).
T2 construct: endogenous in cells; host or cells: human platelets (platelet-rich plasma passed through Sepharose 2B)
T2 sequence (P24557 1-533): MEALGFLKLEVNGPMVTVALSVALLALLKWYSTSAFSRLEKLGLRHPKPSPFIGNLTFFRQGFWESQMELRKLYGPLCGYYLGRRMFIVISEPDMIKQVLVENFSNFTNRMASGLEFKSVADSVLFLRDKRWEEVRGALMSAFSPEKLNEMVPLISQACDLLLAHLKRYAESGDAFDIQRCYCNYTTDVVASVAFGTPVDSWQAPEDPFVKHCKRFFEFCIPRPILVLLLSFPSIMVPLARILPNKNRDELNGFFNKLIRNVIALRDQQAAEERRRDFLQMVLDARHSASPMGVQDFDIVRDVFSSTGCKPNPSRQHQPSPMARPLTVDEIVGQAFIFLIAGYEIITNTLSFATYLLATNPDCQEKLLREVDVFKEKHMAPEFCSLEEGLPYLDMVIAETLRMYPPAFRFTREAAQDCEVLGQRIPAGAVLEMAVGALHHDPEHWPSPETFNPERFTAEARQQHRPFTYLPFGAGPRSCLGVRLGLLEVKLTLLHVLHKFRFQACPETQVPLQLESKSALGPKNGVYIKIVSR
The test is described as follows: Inhibitory effect on thromboxane synthetase (TXB2 formation in human platelet suspension). The note with it: 10 minutes at ambient temperature, then 14C-labelled arachidonic acid 10 minutes, read-out: Inhibition of thromboxane synthetase IC50. The format is cell-based. How it is done: Determining the Inhibitory Effect on Thromboxane Synthetase
Venous human blood is anti-coagulated with 13 mM Na3 citrate and centrifuged for 10 minutes at 170×g. The supernatant platelet-rich plasma is passed through a Sepharose 2B column in order to remove the plasma proteins. Aliquots of the platelet suspension obtained are incubated with the test substance or with a solvent as control for 10 minutes at ambient temperature and after the addition of ^14 C-labelled arachidonic acid incubation is continued for a further 10 minutes. After this has been stopped with 50 μl of citric acid, extraction is carried out 3 times with 500 μl of ethyl acetate and the combined extracts are distilled off with nitrogen. The residue is taken up in ethyl acetate, placed on TLC film and separated with chloro-form:methanol:glacial acetic acid:water (90:8:1:0.8, v/v/v/v). The dried TLC films are placed on X-ray film for 3 days, the autoradiograms were developed and the active zones were marked on the film using the autoradiograms. After cutting out, the activity is measured in a scintillation counter and the inhibition of the formation of TXB2 is calculated. The IC50 is determined by linear interpolation.

In general, IC50 refers to the concentration that inhibits the measured activity by half. Broadly, the EC50 is the concentration giving half of the maximal effect.

Turning to `CC(C)(C)CNC(Nc1cccc(/C(=C\CCCC(=O)O)c2cccnc2)c1)=C(C#N)C#N` [N, 5E-6-(3-(2,2-dicyano-1-neopentylaminoethyleneamino)phenyl)-6-(3-pyridyl)hex-5-enoic acid], the values for the IC50 at Thromboxane and on thromboxane synthetase were 0.003 µM and 0.044 µM, respectively. For the same compound, in the test on thrombocyte aggregation, the EC50 was determined as 0.62 µM.
In the same order, the values of `CC(C)(C)NC(=NC#N)Nc1cccc(C(CCCCC(=O)O)c2cccnc2)c1` (stereo not drawn) [S, 6-(3-(2-cyano-3-tert.butyl-guanidino)phenyl)-6-(3-pyridyl)hexanoic acid] are 0.12 µM, 0.037 µM and 1.1 µM.
In the same order, the values of `CC(C)CNC(=NS(N)(=O)=O)Nc1cccc(/C(=C\CCCC(=O)O)c2cccnc2)c1` [W, 5E-6-(3-(2-amidosulphonyl-3-(2-methylpropyl)guanidino)phenyl)-6-(3-pyridyl)hex-5-enoic acid] are 0.6 µM, 2.7 µM and 12 µM.
In the same order, the values of `N#CN=C(Nc1cccc(/C(=C\CCCC(=O)O)c2cccnc2)c1)NC1CCCC1` [C, 5E-6-(3-(2-cyano-3-cyclopentyl-guanidino)phenyl)-6-(3-pyridyl)hex-5-enoicacid] are 0.03 µM, 0.003 µM and 0.53 µM.
Consider `CC(C)(C)CNC(=NC#N)Nc1cccc(/C(=C\CCCC(=O)O)c2cccnc2)c1` [G, 5E-6-(3-(2-cyano-3-neopentyl-guanidino)phenyl)-6-(3-pyridyl)hex-5-enoic acid], for which the IC50 came to 0.022 µM at Thromboxane and 0.014 µM at thromboxane synthetase. In addition, the EC50 in the test with thrombocyte aggregation turned out to be 0.26 µM.
